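Five concentrations, 48 hours, 96-well plates. GI50: concentration for 50% inhibition of growth. TGI denotes the concentration required for complete inhibition of growth.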
Columns and labels:
Test in all cases: NCI-60 cell line screen, 48 h
786-0 renal = test system: 786-0 renal
A498 renal = test system: A498 renal
A549 NSCLC = test system: A549 NSCLC
ACHN renal = test system: ACHN renal
BT-549 breast = test system: BT-549 breast
CAKI-1 renal = test system: CAKI-1 renal
CCRF-CEM leukemia = test system: CCRF-CEM leukemia
COLO 205 colon = test system: COLO 205 colon
DU-145 prostate = test system: DU-145 prostate
EKVX NSCLC = test system: EKVX NSCLC
HCC-2998 colon = test system: HCC-2998 colon
HCT-116 colon = test system: HCT-116 colon
HCT-15 colon = test system: HCT-15 colon
HL-60(TB) leukemia = test system: HL-60(TB) leukemia
HOP-62 NSCLC = test system: HOP-62 NSCLC
HOP-92 NSCLC = test system: HOP-92 NSCLC
HS 578T breast = test system: HS 578T breast
HT29 colon = test system: HT29 colon
IGROV1 ovarian = test system: IGROV1 ovarian
K-562 leukemia = test system: K-562 leukemia
KM12 colon = test system: KM12 colon
LOX IMVI melanoma = test system: LOX IMVI melanoma
M14 melanoma = test system: M14 melanoma
MALME-3M melanoma = test system: MALME-3M melanoma
MCF7 breast = test system: MCF7 breast
MDA-MB-231 breast = test system: MDA-MB-231 breast
MDA-MB-435 = test system: MDA-MB-435
MOLT-4 leukemia = test system: MOLT-4 leukemia
NCI-H226 lung = test system: NCI-H226 lung
NCI-H23 lung = test system: NCI-H23 lung
NCI-H460 lung = test system: NCI-H460 lung
NCI-H522 lung = test system: NCI-H522 lung
NCI/ADR-RES ovarian = test system: NCI/ADR-RES ovarian
OVCAR-3 ovarian = test system: OVCAR-3 ovarian
OVCAR-4 ovarian = test system: OVCAR-4 ovarian
OVCAR-5 ovarian = test system: OVCAR-5 ovarian
OVCAR-8 ovarian = test system: OVCAR-8 ovarian
PC-3 prostate = test system: PC-3 prostate
RPMI-8226 leukemia = test system: RPMI-8226 leukemia
RXF 393 renal = test system: RXF 393 renal
SF-268 CNS = test system: SF-268 CNS
SF-295 CNS = test system: SF-295 CNS
SF-539 CNS = test system: SF-539 CNS
SK-MEL-2 melanoma = test system: SK-MEL-2 melanoma
SK-MEL-28 melanoma = test system: SK-MEL-28 melanoma
SK-MEL-5 melanoma = test system: SK-MEL-5 melanoma
SK-OV-3 ovarian = test system: SK-OV-3 ovarian
SN12C renal = test system: SN12C renal
SNB-19 CNS = test system: SNB-19 CNS
SNB-75 CNS = test system: SNB-75 CNS
SR leukemia = test system: SR leukemia
SW-620 colon = test system: SW-620 colon
T-47D breast = test system: T-47D breast
TK-10 renal = test system: TK-10 renal
U251 CNS = test system: U251 CNS
UACC-257 melanoma = test system: UACC-257 melanoma
UACC-62 melanoma = test system: UACC-62 melanoma
UO-31 renal = test system: UO-31 renal

## COc1cc2c(cc1I)-c1c(cc(OC)c(OC)c1OC)CC[C@@H]2NC(C)=O
786-0 renal
  GI50: 434 nM
  TGI: 9260 nM
A498 renal
  GI50: 231 nM
  TGI: 725 nM
A549 NSCLC
  GI50: 577 nM
  TGI: > 51900 nM
ACHN renal
  GI50: 614 nM
  TGI: 33800 nM
BT-549 breast
  GI50: 691 nM
  TGI: 3160 nM
CAKI-1 renal
  GI50: 522 nM
  TGI: > 47000 nM
CCRF-CEM leukemia
  GI50: 411 nM
  TGI: > 100000 nM
COLO 205 colon
  GI50: 314 nM
  TGI: 1360 nM
DU-145 prostate
  GI50: 317 nM
  TGI: 1030 nM
EKVX NSCLC
  GI50: 2550 nM
  TGI: > 100000 nM
HCC-2998 colon
  GI50: 664 nM
  TGI: 6310 nM
HCT-116 colon
  GI50: 384 nM
  TGI: 7140 nM
HCT-15 colon
  GI50: 419 nM
  TGI: 16800 nM
HL-60(TB) leukemia
  GI50: 461 nM
HOP-62 NSCLC
  GI50: 556 nM
  TGI: > 33000 nM
HOP-92 NSCLC
  GI50: 987 nM
  TGI: 10700 nM
HS 578T breast
  GI50: 207 nM
  TGI: 593 nM
HT29 colon
  GI50: 294 nM
  TGI: 2670 nM
IGROV1 ovarian
  GI50: 323 nM
  TGI: 5430 nM
K-562 leukemia
  GI50: 385 nM
  TGI: 17800 nM
KM12 colon
  GI50: 390 nM
  TGI: 5600 nM
LOX IMVI melanoma
  GI50: 573 nM
  TGI: 18700 nM
M14 melanoma
  GI50: 283 nM
  TGI: 2650 nM
MALME-3M melanoma
  GI50: 383 nM
  TGI: 32000 nM
MCF7 breast
  GI50: 370 nM
  TGI: 20800 nM
MDA-MB-231 breast
  GI50: 834 nM
  TGI: 7210 nM
MDA-MB-435
  GI50: 213 nM
  TGI: 550 nM
MOLT-4 leukemia
  GI50: 672 nM
  TGI: 25800 nM
NCI-H226 lung
  GI50: 1460 nM
  TGI: 22000 nM
NCI-H23 lung
  GI50: 413 nM
  TGI: 5650 nM
NCI-H460 lung
  GI50: 374 nM
  TGI: 3900 nM
NCI-H522 lung
  GI50: 178 nM
  TGI: 689 nM
NCI/ADR-RES ovarian
  GI50: 985 nM
  TGI: 6180 nM
OVCAR-3 ovarian
  GI50: 232 nM
  TGI: 572 nM
OVCAR-4 ovarian
  GI50: 2240 nM
  TGI: > 100000 nM
OVCAR-5 ovarian
  GI50: 573 nM
  TGI: 39100 nM
OVCAR-8 ovarian
  GI50: 526 nM
  TGI: 14200 nM
PC-3 prostate
  GI50: 464 nM
  TGI: > 42200 nM
RPMI-8226 leukemia
  GI50: 505 nM
  TGI: > 100000 nM
RXF 393 renal
  GI50: 211 nM
  TGI: 569 nM
SF-268 CNS
  GI50: 424 nM
  TGI: 6540 nM
SF-295 CNS
  GI50: 299 nM
  TGI: 3410 nM
SF-539 CNS
  GI50: 239 nM
  TGI: 737 nM
SK-MEL-2 melanoma
  GI50: 235 nM
  TGI: 858 nM
SK-MEL-28 melanoma
  GI50: 344 nM
  TGI: 19100 nM
SK-MEL-5 melanoma
  GI50: 290 nM
  TGI: 1100 nM
SK-OV-3 ovarian
  GI50: 416 nM
  TGI: 12600 nM
SN12C renal
  GI50: 589 nM
  TGI: 52000 nM
SNB-19 CNS
  GI50: 485 nM
  TGI: > 41000 nM
SNB-75 CNS
  GI50: 388 nM
  TGI: 32600 nM
SR leukemia
  GI50: 391 nM
  TGI: 34600 nM
SW-620 colon
  GI50: 312 nM
  TGI: 42200 nM
T-47D breast
  GI50: 366 nM
  TGI: > 100000 nM
TK-10 renal
  GI50: 607 nM
  TGI: 27300 nM
U251 CNS
  GI50: 412 nM
  TGI: 12200 nM
UACC-257 melanoma
  GI50: 415 nM
  TGI: 60000 nM
UACC-62 melanoma
  GI50: 528 nM
  TGI: 30300 nM
UO-31 renal
  GI50: 517 nM
  TGI: > 36800 nM
